Results as given in EP1338283A1, “Use of neoruscine to treat alopecia” (Pierre Fabre Dermo-Cosmetique, priority 2002, dated 2003).

Legend:
[1] = tested on: gène cytochrome P450 aromatase; assay: Cytochrome P450 aromatase gene expression (RT-PCR) in dermal papilla cells; format: cell-based, humaine; settings: néoruscine 5 µg/ml, 3 h exposure, human dermal papilla cells
Protocol: Nous avons évalué, dans le cadre de cet exemple, l'activité de la néoruscine sur la transcription du gène VEGF par les cellules de la papille dermique humaine en culture.
Les cellules de la papille dermique sont ensemencées à 10^6 cellules par boîte dans du DMEM à 10 % de SVF et 1 % de Pénicilline/Streptomycine pendant 24 heures à 37°C dans une atmosphère à 5 % CO2. Les cellules de la papille folliculaire sont alors rincées avec du PBS pour éliminer les cellules non-adhérentes puis exposées aux produits à tester dans du DMEM sans SVF (qui pourrait interférer dans le dosage) durant 3 heures.
Les principes actifs ont été testés en culture à des concentrations non cytotoxiques. Une boîte de culture est réalisée pour chaque lot.
Après rinçage au PBS, les boîtes de culture sont déposées sur de la glace. Les cellules sont traitées avec la solution d'extraction d'ARN, RNA βTM (1 ml/boîte). […]
Les surnageants sont prélevés, les ARN sont précipités avec de l'isopropanol. […] La quantité d'ARN ainsi que la pureté sont déterminées par spectrophotométrie.
L'ARN total (1 µg) est rétro-transcrit en ADN complémentaire une heure à 48°C avec le kit Access RT-PCR system (Promega). […] Une caméra UV permet de saisir l'image du gel et la quantification du volume et de l'intensité des bandes correspondant à l'ADNc et du cytochrome P450 aromatase se fait à l'aide d'un logiciel d'analyse d'image. […]

follicule pileux humain = assay: Growth of human hair follicle ex vivo; format: cell-based; settings: 5 days of treatment, activity versus controls
Protocol: Les follicules pileux sont issus de scalp humain provenant du service de chirurgie plastique des hôpitaux ou des cliniques. La peau est rasée puis lavée dans 10 bains successifs de 10 min de PBS supplémentés d'antibiotiques (pénicilline 100 unités/ml et streptomycine 100 µg/ml). Les follicules en phase anagène reconnaissables car très vascularisés sont ensuite isolés de la peau sous la loupe binoculaire et débarrassés de la graisse. Ils sont ensuite incubés à 37°C dans des boîtes de culture dans du milieu de culture DMEM contenant le produit à tester. Le milieu de culture des follicules ne contient pas de sérum. Ce milieu est composé de 10µg/ml d'insuline, de 10 µg/ml de transferrine, de 10 µg/ml d'hydrocortisone, de 1% d'un mélange de pénicilline (100 uités /ml)-streptomycine (100µg/ml), de 2,5 µg/ml de fungizone et de la L-glutamine à 1mM.
Les follicules sont mis en présence de différentes concentrations de néoruscine (50, 100 et 300 µg/ml) (10 follicules par traitement). Les témoins sont cultivés dans du milieu sans produit.
La croissance de la tige des follicules pileux est mesurée à l'aide de papier millimétré sous loupe binoculaire au jour 0 et tous les jours pendant 5 jours. Une caméra numérique permet de saisir les images de follicules pileux et de calculer avec précision leur taux de croissance. Le pourcentage de croissance = (mesure Tx - mesure T0)/ mesure T0). [formula] […]

gène du VEGF = assay: VEGF gene expression (RT-PCR) in dermal papilla cells; format: cell-based, humaine; settings: néoruscine 50 µg/ml, 3 h incubation
Protocol: La suspension de cellules de la papille folliculaire (10^6 cellules par boîte de 25 cm^2) dans le milieu DMEM est distribuée dans les boîtes de culture puis incubés pendant 12 heures à 37°C dans une atmosphère à 5 % de CO2. Les CPD sont ensuite rincées avec du PBS pour éliminer les cellules non adhérentes.
Pour chaque lot, les cellules sont pré-incubées pendant 3 heures avec les produits à tester préparés dans du DMEM. Les cellules sont ensuite rincées deux fois au PBS.
Après rinçage au PBS, les boîtes de culture sont déposées sur de la glace. Les cellules sont traitées avec la solution d'extraction d'ARN, RNAβTM (1 ml/boîte).
Les lysats cellulaires sont ensuite récupérés, centrifugés après avoir ajouté du chloroforme. Trois phases sont alors observables • inférieure contenant les débris cellulaires - interface contenant l'ADN • […] supérieure avec l'ARN
Les surnageants sont prélevés, les ARN sont précipités avec de l'isopropanol. […]
La quantité d'ARN ainsi que la pureté sont déterminées par spectrophotométrie (Chomczynski P., Sacchi N. Anal. Biochem. 1987; 162: […]). […]
Une caméra UV permet de saisir l'image du gel et la quantification du volume et de l'intensité des bandes correspondant à l'ADNc du VEGF se fait à l'aide d'un logiciel d'analyse d'image.

VEGF = VEGF assay (ELISA) in supernatants of dermal papilla cell cultures; format: cell-based; settings: néoruscine 50 µg/ml, 24 h treatment, dermal papilla cells, ELISA on supernatants
Protocol: La suspension de cellules de la papille dermique (10^6 cellules/2 ml) dans le DMEM 10 % SVF est distribuée dans les plaques 6 puits (10^6 cellules/puits) et incubée pendant 18 heures à 37°C dans une atmosphère à 5 % CO2. Les cellules de la papille folliculaire sont alors rincées avec du PBS pour éliminer les cellules non adhérentes puis exposées pendant 24 heures aux produits à tester inclus dans du DMEM sans SVF (qui pourrait interférer dans le dosage). Pour chaque produit testé, 3 puits sont réalisés.
L'extrait de Ruscus et la néoruscine purifiée sont testés en culture.
Après 24 heures de traitement, les surnageants sont récupérés, centrifugés puis conservés à -80°C avant leur utilisation ultérieure pour le dosage du VEGF.
La production du VEGF dans les surnageants est mesurée par Kit Elisa (R&D Biosystems). Les résultats sont exprimés en picogrammes de VEGF par 10^6 cellules et en pourcentages d'activité. Dans ce test la néoruscine à 50 µg/ml stimule la production du VEGF de 329 %.

néoruscine
stimule la transcription du gène cytochrome P450 aromatase [1]: 81% | croissance des follicules pileux humains, activité du traitement (follicule pileux humain; néoruscine 100 µg/ml): 77,08% | croissance des follicules pileux humains, activité du traitement (follicule pileux humain; néoruscine 300 µg/ml): 118,09% | stimulation de la transcription du gène du VEGF (gène du VEGF): 24,5% | stimule la production du VEGF (VEGF): 329%
